In article PMC11562385 (RSC Chemical Biology, 2024):
Where two headings read alike, the source gives them in different places. Peptide text beside a SMILES is read from it.

Legend:
PD1:PDL1 interaction = molecular target: T1, PD1:PDL1 interaction (Homo sapiens, UniProt Q15116); assay: PD1/PDL1 immunoblocking ELISA (BPS Bioscience kit cat # 72005); type: binding
T1 construct: purchased BPS Bioscience 72005

[1] = molecular target: T2, cell surface PD1 on CD3+/CD8+ cells of h-PBMCs (Homo sapiens, UniProt Q15116); assay: In cellulo PD1 blockade on h-PBMCs by flow cytometry; type: cell-based; conditions: h-PBMC cultures, 30 h, n = 3
T2 construct: endogenous in cells; host or cells: healthy human PBMCs (CD45+, CD3+/CD8+ gated)
Description: (§1) Then, an ex vivo immune cell culture system using h-PBMCs and exhausted PBMCs from a melanoma patient (e-PBMCs) was used to determine the efficacy of selected ADAPTin peptides on T-effector cells (Fig. 6).[91,92] T-cell exhaustion typically leads to a reduction in cytokine release, cytotoxic activity, as well as slower T-cell proliferation.

e-PBMCs = assay: Ex vivo cytokine secretion assay, exhausted PBMCs from a melanoma patient; type: cell-based, human; conditions: e-PBMC, 6 h, LEGENDplex
Protocol: as §1, with “proliferation. […] Cytokines concentrations measured at 72 h post-treatment were in most cases over the detection limit range further indicating the effectiveness of our compounds over time.” for “proliferation.”
Non-covalent ADAPTin2c/2p were used as negative control. (A) Levels of inflammatory cytokines measured by flow-cytometry (FACS) after 6 h incubation with electrophilic ADAPTins. Error bars indicate the mean ± SD, (n = 3). (B) Rescue of exhausted PBMCs from a melanoma patient. Levels of inflammatory cytokines and granule-associated proteins released (6 h) measured by FACS (healthy and untreated exhausted PBMCs: h-/e-PBMCs used as positive and negative controls respectively). Error bars indicate the avg ± SD, (n = 2).
Ex Vivo Cytokine Secretion Assay.
Normal PBMCs (from healthy donor) and exhausted PBMCs isolated from the blood sample of a melanoma patient were activated for 48 h before using anti-CD2/28 monoclonal antibodies with IL-2 (2 ng/mL) as mentioned above. After 48 h, PBMCs were washed and incubated with a series of ADAPTins for 6 h. After treatment, media supernatant was collected for cytokine release measurements using the LEGENDplex™ human CD8/NK (13-plex) panel (BioLegend, cat no. 740267). Briefly, samples were mixed with assay buffer and human (13-plex) mixed-beads and plated on the 96-well filter plate. Samples were incubated for 2 h at room temperature, washed, and resuspended beads with detection antibodies according to manufacturer's protocol. Samples were transferred to a 96-well plate to read on a flow cytometer. The flow cytometer and data acquisition software setting were used according to the manufacturer's instructions. Flow analysis was obtained using a CytoFLEX-S flow cytometer equipped with 3 lasers (488 nm blue, 405 nm violet, and 638 nm from Beckman).
Table S9. Raw data of cytokine secretion assay (n=2).
Cytokine assay IL-2 TNF-α IFN-γ Perforin […]

[2] = Variable-temperature CD melting curves (CD-melts at 228±2 nm and 202±2 nm), individual and global two-state fits; type: physicochemical
Outline: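 Far-UV CD melts (0 to 95 °C) at 15-120 µM peptide in 15 mM phosphate buffer, concentration set by Trp/Tyr absorbance at 280 nm; CD-exciton intensity taken as %-folding probe. Melting curves fitted individually and globally to a two-state model.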

[3] = variable-temperature CD melt 0-95 °C, θ - θcoil(95) vs T, l = 0.1 cm, individual two-state fit

T1 sequence (Q15116 25-167 limits assumed): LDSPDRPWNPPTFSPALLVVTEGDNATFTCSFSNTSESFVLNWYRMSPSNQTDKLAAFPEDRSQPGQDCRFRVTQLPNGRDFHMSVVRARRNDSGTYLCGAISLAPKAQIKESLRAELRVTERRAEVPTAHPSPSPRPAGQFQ
T2 sequence (Q15116 25-288): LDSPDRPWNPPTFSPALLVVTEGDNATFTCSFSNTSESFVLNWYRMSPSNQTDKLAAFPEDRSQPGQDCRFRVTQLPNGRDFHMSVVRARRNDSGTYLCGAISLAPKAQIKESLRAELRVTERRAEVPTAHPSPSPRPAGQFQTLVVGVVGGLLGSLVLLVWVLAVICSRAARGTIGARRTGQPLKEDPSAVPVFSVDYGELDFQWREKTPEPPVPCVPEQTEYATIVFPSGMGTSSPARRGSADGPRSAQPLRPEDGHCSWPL

CSCC[C@H](NC(=O)CNC(=O)[C@H](CCC(=O)O)NC(=O)[C@H](CCCNC(=N)N)NC(=O)[C@H](C)NC(=O)[C@@H](NC(=O)[C@H](Cc1c[nH]c2ccccc12)NC(=O)[C@@H](N)CCCNC(=N)N)C(C)C)C(=O)N[C@@H](CC(N)=O)C(=O)N[C@H](C(=O)N[C@@H](CC(=O)O)C(=O)NCC(=O)N[C@@H](Cc1ccc(O)cc1)C(=O)N[C@@H](Cc1ccccc1)C(=O)N[C@@H](CC(N)=O)C(=O)N[C@@H](Cc1ccc(O)cc1)C(=O)N[C@@H](Cc1c[nH]c2ccccc12)C(=O)N[C@H](C(=O)N[C@@H](Cc1c[nH]c2ccccc12)C(=O)N[C@@H](CCC(=O)O)C(=O)O)C(C)C)[C@@H](C)O [2p] (H-RWVAREGMNTDGYFNYWVWE-OH)
EC50 (PD1:PDL1 interaction): 160 nM
PD1 blockade on CD3+/CD8+ T-effector cells [1]: < 20%

pembrolizumab: FDA-approved anti-PD1 antibody; 'Pem' = its CDR-H3 loop in Table 1 [reference compound]
IFN-γ (e-PBMCs; replicate 1): 4359.77 pg/mL
IL-2 (e-PBMCs; replicate 1): 0.44 pg/mL
Perforin (e-PBMCs; replicate 1): 227.36 pg/mL
TNF-α (e-PBMCs; replicate 1): 500.12 pg/mL
IFN-γ (e-PBMCs; replicate 2): 7617.66 pg/mL
IL-2 (e-PBMCs; replicate 2): 275.42 pg/mL
Perforin (e-PBMCs; replicate 2): 438.61 pg/mL
TNF-α (e-PBMCs; replicate 2): 1224.22 pg/mL

CSCC[C@H](NC(=O)[C@H](CC(=O)O)NC(=O)CNC(=O)[C@H](CCCNC(=N)N)NC(=O)[C@H](Cc1ccc(O)cc1)NC(=O)[C@H](CC(=O)O)NC(=O)[C@H](CCCNC(=N)N)NC(=O)[C@H](CCCNC(=N)N)NC(=O)[C@H](CCCCN)NC(=O)[C@@H](NC(=O)[C@H](Cc1c[nH]c2ccccc12)NC(=O)[C@@H](N)CCCNC(=N)N)C(C)C)C(=O)NCC(=O)N[C@@H](Cc1ccccc1)C(=O)N[C@@H](CC(=O)O)C(=O)N[C@@H](Cc1ccc(O)cc1)C(=O)N[C@@H](Cc1c[nH]c2ccccc12)C(=O)N[C@H](C(=O)N[C@@H](Cc1c[nH]c2ccccc12)C(=O)N[C@@H](CCC(=O)O)C(=O)O)C(C)C [2f] (H-RWVKRRDYRGDMGFDYWVWE-OH)
ΔGF0 ([2]; CD-melt at 228±2 nm, individual two-state Gibbs-Helmholtz fit (Origin 9.0), 0-95 °C, phosphate buffer 15 mM pH 6.5 ± MeOH): -1.33 ± 0.01 kcal/mol
Tm ([2]; Table S5, individual fit, 228±2 nm): 65.4 oC
Hairpin %-fold 291K ([2]; Table S5, individual fit, 291 K): 92 ± 1%
Hairpin %-fold 310K ([2]; Table S5, individual fit, 310 K): 85 ± 1%
-TΔSF0 ([2]; as E16): 5.76 ± 0.07 kcal/mol
ΔCpF0 ([2]; as E16): -208 ±2 cal.deg-1.mol-1
ΔHF0 ([2]; as E16): -7.09 ± 0.07 kcal/mol
ΔHm ([2]; as E16): -15.5 ± 0.04 kcal/mol
VT-CD %-fold ([2]; folded fraction (χF) at 25 °C from CD-melts, (R) regular / (B) bulged fold, phosphate buffer 15 mM pH 6.5, up to 20% MeOH): 92% (B)
%fold 291K ([2]; fraction folded at 291 K from two-state fit of CD-melt): 92%
DHm (fitted value, OriginPro two-state fit of CD-melt) [2, 3]: -15.5228 kcal/mol
Tm (fitted value, OriginPro two-state fit of CD-melt) [2, 3]: 338.533 K
EC50 (PD1:PDL1 interaction; ELISA, mean of three independent experiments, read-out: EC50 Value): 862 nM
LE (ligand efficiency) (PD1:PDL1 interaction; LE = -RTln(EC50)/HA, HA = non-hydrogen atoms omitting the strap (RWV•••VWE)): 0.06
